Measured values taken from US20180289678A1, “PHARMACEUTICAL COMPOSITION, PHARMACEUTICAL DOSAGE FORM, PROCESS FOR THEIR PREPARATION, METHODS FOR TREATING AND USES THEREOF” (Boehringer Ingelheim International GmbH, priority 2009, published 2018).
Like-named read-outs stand apart in the source and are kept apart here.

Experiments:
[1] = Study .4: 4-week treatment of diabetic patients, once daily, pharmacokinetic parameters; assay type: in vivo, human; conditions: human, plasma, oral, 25 mg, Study .4, fasted
Experimental: (§1) 5. Pharmacokinetic Parameters
(§2) The pharmacokinetic parameters of pharmaceutical compositions and pharmaceutical dosage forms are assessed in healthy volunteer and patient populations. In the studies shown below, the participants fasted on the day of sampling, unless as otherwise stated (see for example study .3). The active substance in the studies below is the compound (I.9), preferably in the crystalline form (I.9X), and the dose of active ingredient is indicated in mg.
(§3) For the quantification of plasma concentrations of the active ingredient, 2.7 mL of blood was collected and transferred into an EDTA (ethylendiaminetetraacetic acid)-anticoagulant blood drawing tube. The EDTA-anticoagulated blood samples were centrifuged immediately after collection. Centrifugation lasted for about 10 minutes (at about 2,000×gf to 4,000×gf) at 4-8° C. or within 30 minutes while stored on ice. Concentrations of active substance in EDTA human plasma samples were quantitated using a HPLC/MS/MS method. The assay method comprised a solid phase supported liquid-liquid extraction of human plasma coupled with HPLC/MS/MS determination of the extracted samples. The HPLC/MS/MS assay was validated for the range of 1.11 to 1110 nM in human plasma.
(§4) Study .4: 4-week treatment of a diabetic patient population of N=78, once daily administration for 4 weeks. Patients were administered tablets as described in Example 10 (section Examples of formulations).
(§5) AUC0-inf:area under the concentration-time curve of the analyte in plasma over the time interval from 0 extrapolated to infinity.
(§6) Cmax: maximum concentration of the analyte in plasma.
(§7) Tmax: time from dosing to maximum concentration.
(§8) AUCT,SS:area under the concentration-time curve of the analyte in plasma over the time interval from 0 to 24 h at steady-state.
(§9) Cmax,ss:maximum concentration of the analyte in plasma at steady state over a uniform dosing interval.
(§10) tmax,ss:time from dosing to maximum concentration at steady state.

[2] = Pharmacokinetic profile in fasting humans, ranges over Studies .1 to .5; assay type: in vivo; conditions: human, plasma, oral
Experimental: as §1, §2, §3
Study .1: Single dose study in a healthy volunteer population of N=72. Healthy volunteers were administered tablets as described in Example 10 (section Examples of formulations).
Study .2: Multiple rising dose trial in a diabetic patient population of N=48, once daily administration for 8 days. Patients were administered tablets as described in Example 10 (section Examples of formulations).
Study .3: Single dose, cross-over, food effect study in a healthy volunteer population of N=14. Healthy volunteers were administered tablets as described in Example 10 (section Examples of formulations).
as §4
Study .5: Single dose study in a healthy volunteer population of N=48 (Japanese volunteers). Healthy volunteers were administered tablets as described in Example 11 (section Examples of formulations).
as §5, §6, §7, §8, §9, §10

- Cmax ([1]; 25 mg once daily, steady state, read-out: Cmax,ss gMean): 0.676 µM
- Tmax ([1]; 25 mg once daily, steady state, read-out: tmax,ss Mean): 1.55 h
- Tmax ([1]; 25 mg once daily, steady state, read-out: tmax,ss Median): 1.5 h
- Tmax ([1]; 25 mg once daily, steady state, read-out: tmax,ss g Mean): 1.4 h
- AUC(0-inf) ([1]; 25 mg single dose, read-out: AUC0-inf Mean): 4340 nM·h
- AUC(0-inf) ([1]; 25 mg single dose, read-out: AUC0-inf Median): 4270 nM·h
- AUC(0-inf) ([1]; 25 mg single dose, read-out: AUC0-inf gMean): 4240 nM·h
- Cmax ([1]; 25 mg single dose, read-out: Cmax Mean): 0.722 µM
- Cmax ([1]; 25 mg single dose, read-out: Cmax Median): 0.697 µM
- Cmax ([1]; 25 mg single dose, read-out: Cmax gMean): 0.709 µM
- Tmax ([1]; 25 mg single dose, read-out: tmax Mean): 1.39 h
- Tmax ([1]; 25 mg single dose, read-out: tmax Median): 1.5 h
- Tmax ([1]; 25 mg single dose, read-out: tmax gMean): 1.33 h
- AUC ([2]; 2.5 mg, dose of 2.5 mg, read-out: AUC): 283 to 677 nM·h
- Cmax ([2]; 2.5 mg, dose of 2.5 mg, read-out: Cmax): 0.0403 to 0.0963 µM
- AUC ([2]; 2.5 mg, dose of 2.5 mg, read-out: geometric mean AUC): 394 to 468 nM·h
- Cmax ([2]; 2.5 mg, dose of 2.5 mg, read-out: geometric mean Cmax): 0.0529 to 0.0666 µM
- AUC ([2]; 2.5 mg, multiple doses of 2.5 mg, read-out: AUCτ,ss): 283 to 677 nM·h
- Cmax ([2]; 2.5 mg, multiple doses of 2.5 mg, read-out: Cmax,ss): 0.0403 to 0.0963 µM
- AUC(0-inf) ([2]; 2.5 mg, single dose of 2.5 mg, read-out: AUC0-inf): 326 to 631 nM·h
- Cmax ([2]; 2.5 mg, single dose of 2.5 mg, read-out: Cmax): 0.0428 to 0.0812 µM
- AUC(0-inf) ([2]; 2.5 mg, single dose of 2.5 mg, read-out: geometric mean AUC0-inf): 394 to 468 nM·h
- Cmax ([2]; 2.5 mg, single dose of 2.5 mg, read-out: geometric mean Cmax): 0.0529 to 0.0613 µM
- AUC ([2]; 5 mg, dose of 5.0 mg, read-out: AUC): 1000 to 1310 nM·h
- Cmax ([2]; 5 mg, dose of 5.0 mg, read-out: Cmax): 0.123 to 0.23 µM
- AUC(0-inf) ([2]; 5 mg, single dose of 5.0 mg, read-out: AUC0-inf): 1000 to 1310 nM·h
- Cmax ([2]; 5 mg, single dose of 5.0 mg, read-out: Cmax): 0.123 to 0.23 µM
- AUC ([2]; 10 mg, dose of 10.0 mg, read-out: AUC): 1170 to 3190 nM·h
- Cmax ([2]; 10 mg, dose of 10.0 mg, read-out: Cmax): 0.143 to 0.796 µM
- AUC ([2]; 10 mg, dose of 10.0 mg, read-out: geometric mean AUC): 1690 to 2660 nM·h
- Cmax ([2]; 10 mg, dose of 10.0 mg, read-out: geometric mean Cmax): 0.221 to 0.372 µM
- AUC ([2]; 10 mg, multiple doses of 10.0 mg, read-out: AUCτ,ss): 1350 to 2600 nM·h
- Cmax ([2]; 10 mg, multiple doses of 10.0 mg, read-out: Cmax,ss): 0.166 to 0.479 µM
- AUC ([2]; 10 mg, multiple doses of 10.0 mg, read-out: geometric mean AUCτ,ss): 1850 to 2000 nM·h
- Cmax ([2]; 10 mg, multiple doses of 10.0 mg, read-out: geometric mean Cmax,ss): 0.252 to 0.272 µM
- AUC(0-inf) ([2]; 10 mg, single dose of 10.0 mg, read-out: AUC0-inf): 1170 to 3190 nM·h
- Cmax ([2]; 10 mg, single dose of 10.0 mg, read-out: Cmax): 0.143 to 0.796 µM
- AUC(0-inf) ([2]; 10 mg, single dose of 10.0 mg, read-out: geometric mean AUC0-inf): 1690 to 2660 nM·h
- Cmax ([2]; 10 mg, single dose of 10.0 mg, read-out: geometric mean Cmax): 0.221 to 0.372 µM
- AUC ([2]; 25 mg, dose of 25.0 mg, read-out: AUC): 2660 to 7640 nM·h
- Cmax ([2]; 25 mg, dose of 25.0 mg, read-out: Cmax): 0.334 to 1.03 µM
- AUC ([2]; 25 mg, dose of 25.0 mg, read-out: geometric mean AUC): 3750 to 6130 nM·h
- Cmax ([2]; 25 mg, dose of 25.0 mg, read-out: geometric mean Cmax): 0.49 to 0.709 µM
- AUC ([2]; 25 mg, multiple doses of 25.0 mg, read-out: AUCτ,ss): 2790 to 7640 nM·h
- Cmax ([2]; 25 mg, multiple doses of 25.0 mg, read-out: Cmax,ss): 0.443 to 0.907 µM
- AUC ([2]; 25 mg, multiple doses of 25.0 mg, read-out: geometric mean AUCτ,ss): 4640 to 4890 nM·h
- Cmax ([2]; 25 mg, multiple doses of 25.0 mg, read-out: geometric mean Cmax,ss): 0.622 to 0.676 µM
- AUC(0-inf) ([2]; 25 mg, single dose of 25.0 mg, read-out: AUC0-inf): 2660 to 7170 nM·h
- Cmax ([2]; 25 mg, single dose of 25.0 mg, read-out: Cmax): 0.334 to 1.03 µM
- AUC(0-inf) ([2]; 25 mg, single dose of 25.0 mg, read-out: geometric mean AUC0-inf): 3750 to 6130 nM·h
- Cmax ([2]; 25 mg, single dose of 25.0 mg, read-out: geometric mean Cmax): 0.49 to 0.709 µM
- AUC ([2]; 50 mg, dose of 50.0 mg, read-out: AUC): 6450 to 14100 nM·h
- Cmax ([2]; 50 mg, dose of 50.0 mg, read-out: Cmax): 0.722 to 2.02 µM
- AUC ([2]; 50 mg, dose of 50.0 mg, read-out: geometric mean AUC): 8310 to 8460 nM·h
- Cmax ([2]; 50 mg, dose of 50.0 mg, read-out: geometric mean Cmax): 1.08 to 1.14 µM
- AUC(0-inf) ([2]; 50 mg, single dose of 50.0 mg, read-out: AUC0-inf): 6450 to 14100 nM·h
- Cmax ([2]; 50 mg, single dose of 50.0 mg, read-out: Cmax): 0.722 to 2.02 µM
- AUC(0-inf) ([2]; 50 mg, single dose of 50.0 mg, read-out: geometric mean AUC0-inf): 8310 to 8460 nM·h
- Cmax ([2]; 50 mg, single dose of 50.0 mg, read-out: geometric mean Cmax): 1.08 to 1.14 µM
SMILES: OC[C@H]1O[C@@H](c2ccc(Cl)c(Cc3ccc(O[C@H]4CCOC4)cc3)c2)[C@H](O)[C@@H](O)[C@@H]1O [Compound (I.9), 1-chloro-4-(β-D-glucopyranos-1-yl)-2-[4-((S)-tetrahydrofuran-3-yloxy)-benzyl]-benzene]
